# From patent publication US20020077328A1, “Selective cyclooxygenase-2 inhibitors and vasomodulator compounds for generalized pain and headache pain” (priority 2000, published 2002)
# Assay: Solubility of celecoxib and valdecoxib in various solvent liquids
# Assay type: physicochemical
# Method: Aliquots of a solvent liquid were then added dropwise in approximately 100 mg increments to the solid sample. The resulting mixture was vortexed and/or sonicated between aliquot additions. […] Solubility values preceded by the < symbol denote that, at the particular concentration shown, the mixture was still cloudy, i.e., not all of the drug was fully in dissolved form.
# [1] = Labrasol ™ /DGME/propylene glycol laurate 40:40:20 w/w
# [2] = Polyethylene glycol 400/water 1:1 w/w
# [3] = Polyethylene glycol 400/water 2:1 w/w
# [4] = Propylene glycol laurate/Labrasol ™ 1:1 w/w
# [5] = Tagat ™ TO/Capmul ™ MCM 1:1 w/w
Solubility (Capmul ™ MCM),Solubility (DGME/water 1:1 w/w),Solubility (DGME/water 2:1 w/w),Solubility (Labrasol ™),Solubility [1],Solubility (Polyethylene glycol 400),Solubility [2],Solubility [3],Solubility (Propylene glycol),Solubility (Propylene glycol laurate),Solubility [4],Solubility (Tagat ™ TO),Solubility [5],also measured,SMILES
19 − 21 mg/g,3 mg/g,42 mg/g,64 mg/g,288 − 297 mg/g,304 mg/g,<1 mg/g,6 mg/g,23 − 41 mg/g,18 mg/g,58 mg/g,24 − 40 mg/g,34 − 52 mg/g,Solubility (Arlacel ™ 186): 13 mg/g; Solubility (Cremophor ™ EL): 36 mg/g; Solubility (Ethyl caprylate): 25 mg/g; Solubility (Labrasol ™ /DGME 1:1 w/w): 335 mg/g; Solubility (Labrasol ™ /DGME/propylene glycol laurate 35:35:30 w/w): 266 mg/g; Solubility (Labrasol ™ /DGME/propylene glycol laurate 45:45:10 w/w): 313 − 325 mg/g; Solubility (Miglyol ™ 812): 6 − 12 mg/g; Solubility (Polysorbate 80): 73 mg/g; Solubility (Tagat ™ /Capmul ™ MCM/DGME 35:35:30 w/w): 212 mg/g; Solubility (Tagat ™ /Capmul ™ MCM/DGME 58:12:30 w/w): 274 mg/g; Solubility (Tetraethylene glycol dimethyl ether): 188 mg/g; Solubility (Triethylene glycol monoethyl ether): 170 mg/g,Cc1ccc(-c2cc(C(F)(F)F)nn2-c2ccc(S(N)(=O)=O)cc2)cc1 [celecoxib]
13 mg/g,6 mg/g,32 mg/g,34 mg/g,130 mg/g,50 − 85 mg/g,1 mg/g,13 mg/g,10 − 20 mg/g,22 mg/g,42 mg/g,23 mg/g,24 mg/g,Advantage in solubility for DGME over propylene glycol: approximately tenfold; Solubility (Diethylene glycol monoethyl ether (DGME)): 120 mg/g,Cc1onc(-c2ccccc2)c1-c1ccc(S(N)(=O)=O)cc1 [valdecoxib]
